Reference: the NIST ThermoML archive (doi:10.1021/je0302001)

Test: mn = molality of the nth substance listed, in mol/kg
Conditions: for speed of sound / mass density / viscosity: 101.3 kPa, Liquid; for surface tension liquid-gas: Ring tensiometer; for viscosity: Capillary tube (Ostwald / Ubbelohde) method

O=[N+]([O-])[O-].O=[N+]([O-])[O-].[Zn+2] [nitric acid, zinc salt] + O
Conditions | mass density [kg/m3] | speed of sound [m/s] | surface tension liquid-gas [mN/m] | viscosity [mPa·s]
298.15 K, m1 = 4.817 | – | 1748.7 | – | –
298.15 K, m1 = 5.224 | – | 1755.5 | – | –
298.15 K, m1 = 5.797 | – | 1769.4 | – | –
298.15 K, m1 = 6.34 | – | 1777.8 | – | –
298.15 K, m1 = 6.89 | – | 1783 | – | –
298.45 K, m1 = 0.0875 | 1009.7 | – | – | –
298.45 K, m1 = 5.224 | 1589.9 | – | – | –
298.65 K, m1 = 0.6405 | 1090.9 | – | – | –
298.75 K, m1 = 1.113 | 1156.5 | – | – | –
298.75 K, m1 = 2.91 | 1373.5 | – | – | –
298.85 K, m1 = 2.145 | 1286.9 | – | – | –
298.95 K, m1 = 1.258 | 1175.8 | – | – | –
299.05 K, m1 = 7.349 | 1738.2 | – | – | –
299.2 K, m1 = 1.906 | 1258 | – | – | –
299.6 K, m1 = 5.8 | 1633.1 | – | – | –
299.7 K, m1 = 0.2466 | 1033.3 | – | – | –
299.7 K, m1 = 1.551 | 1213.3 | – | – | –
299.7 K, m1 = 6.89 | 1708.8 | – | – | –
299.75 K, m1 = 2.29 | 1303.4 | – | – | –
300.05 K, m1 = 2.292 | 1303.4 | – | – | –
300.05 K, m1 = 3.472 | 1431.1 | – | – | –
300.05 K, m1 = 6.34 | 1671.6 | – | – | –
300.2 K, m1 = 2.344 | 1309.4 | – | – | –
300.35 K, m1 = 5.224 | 1588.3 | – | – | –
300.55 K, m1 = 0.3388 | 1046.5 | – | – | –
300.8 K, m1 = 0.6111 | 1085.9 | – | – | –
300.8 K, m1 = 2.91 | 1372.1 | – | – | –
301 K, m1 = 2.145 | 1285.5 | – | – | –
301.25 K, m1 = 1.113 | 1155.2 | – | – | –
301.35 K, m1 = 5.8 | 1631.5 | – | – | –
301.35 K, m1 = 6.89 | 1707.1 | – | – | –
301.4 K, m1 = 0.1329 | 1015.6 | – | – | –
301.4 K, m1 = 1.906 | 1256.6 | – | – | –
301.5 K, m1 = 1.258 | 1174.5 | – | – | –
301.55 K, m1 = 0.6405 | 1089.7 | – | – | –
301.85 K, m1 = 2.29 | 1302 | – | – | –
301.85 K, m1 = 4.075 | 1488 | – | – | –
301.85 K, m1 = 6.34 | 1669.9 | – | – | –
302 K, m1 = 1.551 | 1212 | – | – | –
302.1 K, m1 = 3.472 | 1429.5 | – | – | –
302.1 K, m1 = 4.817 | 1553.4 | – | – | –
302.2 K, m1 = 2.292 | 1302 | – | – | –
302.25 K, m1 = 2.344 | 1308.1 | – | – | –
302.25 K, m1 = 5.224 | 1586.5 | – | – | –
302.35 K, m1 = 0.0875 | 1008.6 | – | – | –
302.5 K, m1 = 7.349 | 1734.5 | – | – | –
302.9 K, m1 = 2.91 | 1370.6 | – | – | –
303.15 K, m1 = 0.0875 | – | 1514.4 | – | –
303.15 K, m1 = 0.1329 | – | 1513 | – | 0.841
303.15 K, m1 = 0.2263 | – | – | 71.91 | –
303.15 K, m1 = 0.2466 | 1032.1 | 1518.2 | – | 0.87
303.15 K, m1 = 0.334 | – | – | 71.94 | –
303.15 K, m1 = 0.3388 | – | 1520.9 | – | 0.896
303.15 K, m1 = 0.6111 | – | 1535.9 | – | 0.976
303.15 K, m1 = 0.6198 | – | – | 72.68 | –
303.15 K, m1 = 0.6405 | – | 1536.9 | – | 0.984
303.15 K, m1 = 0.8228 | – | – | 73.52 | –
303.15 K, m1 = 1.113 | – | 1561.1 | – | 1.15
303.15 K, m1 = 1.258 | – | 1571.6 | – | 1.221
303.15 K, m1 = 1.259 | – | – | 74.63 | –
303.15 K, m1 = 1.549 | – | – | 75.19 | –
303.15 K, m1 = 1.551 | – | 1589.3 | – | 1.34
303.15 K, m1 = 1.818 | – | – | 75.65 | –
303.15 K, m1 = 1.906 | – | 1610.2 | – | 1.549
303.15 K, m1 = 2.145 | 1284.1 | – | – | 1.711
303.15 K, m1 = 2.222 | – | – | 76.95 | –
303.15 K, m1 = 2.29 | – | – | – | 1.797
303.15 K, m1 = 2.344 | – | – | – | 1.819
303.15 K, m1 = 2.526 | – | – | 77.93 | –
303.15 K, m1 = 2.721 | – | – | 78.39 | –
303.15 K, m1 = 2.91 | – | – | – | 2.259
303.15 K, m1 = 3.426 | – | – | 80.38 | –
303.15 K, m1 = 3.472 | – | – | – | 2.839
303.15 K, m1 = 4.011 | – | – | 81.68 | –
303.15 K, m1 = 4.075 | – | – | – | 3.581
303.15 K, m1 = 4.231 | – | – | 82.16 | –
303.15 K, m1 = 4.817 | – | – | – | 4.795
303.15 K, m1 = 5.133 | – | – | 84.17 | –
303.15 K, m1 = 5.224 | – | – | – | 5.544
303.15 K, m1 = 5.797 | – | – | – | 7.1
303.15 K, m1 = 6.245 | – | – | 85.54 | –
303.15 K, m1 = 6.34 | – | – | – | 8.647
303.15 K, m1 = 6.89 | – | – | – | 10.85
303.15 K, m1 = 7.349 | – | – | – | 12.93
